{"source": "patent US12290516B2", "about": "“Heterocyclic compounds as EphA4 inhibitors” (The Hong Kong University of Science and Technology, priority 2017, dated 2025)", "key": {"EphA4": {"system": "EphA4", "assay": "ephrin-A1-induced EphA4 clustering assay in cultured hippocampal neurons", "type": "cell-based", "conditions": "dose of 50 μM", "excerpt": "FIG. 1. Inhibitory effect of small molecule compounds on EphA4 signaling. Inhibitory activity of 22 selected FDA-approved drugs in ephrin-A1-induced EphA4 clusters in cultured hippocampal neurons. n=4 neuronal cell cultures; *p<0.05 vs. Cont; unpaired Student's t-test.\nThe inhibitory activity of the 22 drugs listed in Table 1 was examined using an ephrin-A1-induced EphA4 clustering assay in cultured hippocampal neurons."}, "[1]": {"target": "T1, extracellular domain of mouse EphA4 (interaction with ephrin-A1) (Mus musculus, UniProt Q03137)", "T1 construct": "the extracellular domain of mouse EphA4", "T1 sequence (Q03137 20-547 limits assumed)": "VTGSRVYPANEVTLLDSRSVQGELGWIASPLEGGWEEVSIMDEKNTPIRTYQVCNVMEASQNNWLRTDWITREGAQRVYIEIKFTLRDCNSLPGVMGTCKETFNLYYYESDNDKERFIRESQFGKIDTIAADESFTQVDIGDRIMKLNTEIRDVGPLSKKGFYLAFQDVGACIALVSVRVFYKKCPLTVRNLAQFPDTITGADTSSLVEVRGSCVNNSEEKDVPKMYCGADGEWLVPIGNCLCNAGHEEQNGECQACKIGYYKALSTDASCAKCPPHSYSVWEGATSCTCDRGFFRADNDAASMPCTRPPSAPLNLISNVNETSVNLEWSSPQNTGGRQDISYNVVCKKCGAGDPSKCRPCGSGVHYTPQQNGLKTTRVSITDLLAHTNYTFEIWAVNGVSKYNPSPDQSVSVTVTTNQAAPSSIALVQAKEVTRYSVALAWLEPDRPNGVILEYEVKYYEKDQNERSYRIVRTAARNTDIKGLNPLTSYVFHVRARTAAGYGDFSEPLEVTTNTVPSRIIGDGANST", "assay": "Dose-response ELISA of the EphA4/ephrin-A1 interaction", "type": "binding", "conditions": "read-out: IC50, inhibition of interaction between extracellular domain of mouse EphA4 and ephrin-A1", "excerpt": "FIG. 3. […] Dose-response curve of nilotinib against the interaction of mouse EphA4 with ephrin-A1.\nNilotinib is a kinase inhibitor that targets the following kinases: BCR-ABL, KIT, LCK, EPHA3, EPHA8, DDR1, DDR2, PDGFRB, MAPK11, and ZAK. Nilotinib is predicted to form hydrogen bonds with Q70 in the D-E loop and T104. It also has hydrophobic interactions with F154, V157, 1163, L166, A193, and V195."}}}
{"molecule": "CN1CCC(=C2c3ccccc3C=Cc3ccccc32)CC1", "note": "[Cyproheptadine]", "values": [{"measurement": "inhibition of ephrin-A1-induced EphA4 clustering", "setting": "EphA4", "value": 30, "unit": "%"}]}
{"molecule": "Cc1cn(-c2cc(NC(=O)c3ccc(C)c(Nc4nccc(-c5cccnc5)n4)c3)cc(C(F)(F)F)c2)cn1", "note": "[Nilotinib]", "values": [{"measurement": "IC50", "setting": "[1]", "value": 70.7, "unit": "µM"}, {"measurement": "inhibition of ephrin-A1-induced EphA4 clustering", "setting": "EphA4", "value": 30, "unit": "%"}]}
{"molecule": "C[C@]12CC[C@H](O)CC1=CC[C@@H]1[C@@H]2CC[C@]2(C)C(c3cccnc3)=CC[C@@H]12", "note": "[abiraterone]", "values": [{"measurement": "inhibition of ephrin-A1-induced EphA4 clustering", "setting": "EphA4", "value": 30, "unit": "%"}]}
{"molecule": "Retapamulin", "values": [{"measurement": "inhibition of ephrin-A1-induced EphA4 clustering", "setting": "EphA4", "value": 30, "unit": "%"}]}
